Data as given in the NIST ThermoML archive (doi:10.1021/je101213p).
Values joined by “and” are separate entries in the source; they are usually repeats but may differ in a detail not shown here. Equal entries are not always repeated. ± gives the expanded uncertainty stated by the source.

Key:
[1] = DTA
[2] = Molar enthalpy of transition or fusion; settings: DSC
[3] = molar heat capacity at constant pressure; settings: 101.33 kPa, Liquid, Large sample (1 g) DSC

CCCCCCCCn1cc[n+](C)c1.O=S(=O)([N-]S(=O)(=O)C(F)(F)F)C(F)(F)F
Settings | Molar enthalpy of transition or fusion [kcal/mol] | Normal melting temperature [°C] | molar heat capacity at constant pressure [J/K/mol]
[1], Metastable crystal | – | -23.34 ± 0.61 | –
[2], Metastable crystal | 6.56 ± 0.43 | – | –
[3], 281.99 K | – | – | 693.71 ± 23
[3], 291.95 K | – | – | 695.62 ± 23
[3], 302.86 K | – | – | 690.39 ± 23
[3], 302.88 K | – | – | 692.29 ± 23
[3], 312.83 K | – | – | 705.13 ± 23
[3], 312.86 K | – | – | 705.6 ± 23
[3], 322.79 K | – | – | 714.16 ± 24
[3], 322.84 K | – | – | 719.87 ± 24
[3], 332.76 K | – | – | 719.87 ± 24
[3], 332.81 K | – | – | 732.7 ± 24
[3], 342.72 K | – | – | 725.57 ± 24
[3], 342.78 K | – | – | 748.39 ± 25
[3], 352.68 K | – | – | 730.33 ± 24
[3], 352.74 K | – | – | 757.9 ± 25
[3], 362.65 K | – | – | 736.98 ± 24
[3], 362.71 K | – | – | 767.89 ± 26
[3], 372.62 K | – | – | 742.21 ± 25
[3], 372.66 K | – | – | 779.78 ± 26

CCCCCC[n+]1ccn(C)c1.O=S(=O)([N-]S(=O)(=O)C(F)(F)F)C(F)(F)F
Settings | Molar enthalpy of transition or fusion [kcal/mol] | Normal melting temperature [°C] | molar heat capacity at constant pressure
[1], Crystal | – | -1.70 ± 0.61 | –
[2], Crystal | 6.62 ± 0.43 | – | –
[3], 302.86 K | – | – | 655.92 ± 22 J/K/mol
[3], 312.83 K | – | – | 632.65 ± 21 J/K/mol and 660.84 ± 22 J/K/mol
[3], 322.79 K | – | – | 666.66 ± 22 J/K/mol
[3], 322.81 K | – | – | 640.7 ± 21 J/K/mol
[3], 332.76 K | – | – | 668 ± 22 J/K/mol
[3], 332.78 K | – | – | 648.76 ± 21 J/K/mol
[3], 342.73 K | – | – | 671.58 ± 22 J/K/mol
[3], 342.76 K | – | – | 657.26 ± 22 J/K/mol
[3], 352.7 K | – | – | 676.95 ± 22 J/K/mol
[3], 352.72 K | – | – | 666.66 ± 22 J/K/mol
[3], 362.67 K | – | – | 683.66 ± 23 J/K/mol
[3], 362.68 K | – | – | 679.18 ± 22 J/K/mol
[3], 372.64 K | – | – | 690.82 ± 23 J/K/mol
